In paper PMC12209990, “Effect of Cytochrome P450 3A Inhibition and Induction by Itraconazole and Rifampin on Tazemetostat Pharmacokinetics in Patients With Advanced Malignancies” (Clinical Pharmacology in Drug Development, 2025):
Where two headings read alike, the source gives them in different places. Marks after values point to notes of the source that are not given here.

Legend:
[1] = Safety (TEAEs) Part 2: tazemetostat coadministered with rifampin
Procedure: (§1) Part 2 of the study evaluated the DDI between tazemetostat and rifampin. On the mornings of Days 1 and 15, patients received a single dose of tazemetostat 800 mg orally. On Days 3‐14, patients received tazemetostat 800 mg twice daily. On Days 17‐23, patients received tazemetostat 800 mg twice daily, coadministered in the morning with a single dose of rifampin 600 mg orally. On the morning of Day 24, patients received a single dose of tazemetostat 800 mg coadministered with rifampin 600 mg. On the morning of Day 25, patients received rifampin 600 mg (Figure 1B). Throughout Part 2, administration of rifampin occurred 1 hour before a meal.
Safety was assessed by monitoring treatment‐emergent adverse events (TEAEs) and vital signs, electrocardiography, and clinical laboratory tests. TEAEs were defined as adverse events that started or worsened in severity on or after the date of the first dose of the study drug through 30 days after the last dose. Treatment‐related TEAEs were summarized by each study drug for both study parts. Adverse events were coded using the Medical Dictionary for Regulatory Activities Version 23.1 and graded per Common Terminology Criteria for Adverse Events Version 5.0.

[2] = Phase I DDI study Part 2: tazemetostat plasma PK alone and with rifampin (noncompartmental analysis); type: in vivo, human; conditions: for AUC0‐12h ratio, geoLSM (90% CI) / Cmax ratio, geoLSM (90% CI): steady state with rifampin vs alone, Day 24 versus Day 15; for RacAUC (AUC0‐12h accumulation ratio), geoLSM (90% CI) / RacCmax (Cmax accumulation ratio), geoLSM (90% CI): tazemetostat 800 mg alone, Day 15 versus Day 1; for Tmax / AUC / AUC(0-t) / Cmax / half-life: human; for Tmax: read-out: tmax, median (range)
Excerpt: This was a Phase I, multicenter, open‐label, 2‐part study encompassing a fixed‐sequence design that aimed to characterize the PK of tazemetostat when administered as single and twice‐daily oral doses alone or in combination with either itraconazole (Part 1) or rifampin (Part 2). Secondary objectives were to evaluate the safety profile of tazemetostat when coadministered with either itraconazole (Part 1) or rifampin (Part 2).
as §1
In Part 2, plasma concentrations of tazemetostat following tazemetostat dosing on Days 1, 15, and 24 were quantified for PK analyses before dosing (0 hour) and at 0.5, 1, 1.5, 2, 4, 6, 8, 12, 24, 36, and 48 hours.
Plasma concentrations of tazemetostat, over the ranges of 1.00‐2000 ng/mL, were quantified by a fully validated liquid chromatography with tandem mass spectrometric detection analytical method. Samples that had no detectable peak or had the calculated concentration <1.00 ng/mL were reported as below the lower limit of quantification. Tazemetostat analysis consisted of protein precipitation extraction and separation using mobile phases of 100 mM ammonium formate/water (1:9 v/v) (mobile phase A) and 100 mM ammonium formate/acetonitrile (1:9 v/v) (mobile phase B). Detection was achieved using an API‐5500 mass spectrometer (AB Sciex) using electrospray ionization (positive‐ion mode) in the multiple reaction monitoring mode. The multiple reaction monitoring mode m/z transitions monitored were […] for tazemetostat and the dwell time was set at 300 milliseconds.
Plasma concentration‐time data for tazemetostat were analyzed by noncompartmental analysis using the validated software program Phoenix WinNonlin Professional Version 8.3 (Certara Inc., Mountain View, CA).

[3] = Part 2, tazemetostat 800 mg twice daily alone, multiple dosing, Day 15, plasma

Compound: CCN(c1cc(-c2ccc(CN3CCOCC3)cc2)cc(C(=O)NCc2c(C)cc(C)[nH]c2=O)c1C)C1CCOCC1 [Tazemetostat]
- Deaths resulting from TEAEs ([1]; Part 2): no deaths
- Any TEAE Grade 3 or 4, patients ([1]; human, in vivo): 13 (61.9) n (%)
- Any TEAE leading to dose reduction, patients ([1]; human, in vivo): 2 (9.5) n (%)
- Any TEAE leading to study drug discontinuation, patients ([1]; human, in vivo): 0 n (%)
- Any TEAE leading to study drug interruption, patients ([1]; human, in vivo): 7 (33.3) n (%)
- Any TEAE, patients ([1]; human, in vivo): 21 (100.0) n (%)
- Any TESAE, patients ([1]; human, in vivo): 9 (42.9) n (%)
- Any treatment-related TEAE Grade 3 or 4, patients ([1]; human, in vivo): 7 (33.3) n (%)
- Any treatment-related TESAE, patients ([1]; human, in vivo): 1 (4.8) n (%)
- Grade 3/4 TEAE decreased lymphocyte count ([1]; human, in vivo): 9.5%
- TEAE anemia, frequency ([1]; human, in vivo): 23.8%
- TEAE constipation, frequency ([1]; human, in vivo): 23.8%
- TEAE cough, frequency ([1]; human, in vivo): 28.6%
- TEAE diarrhea, frequency ([1]; human, in vivo): 33.3%
- TEAE fatigue, frequency ([1]; human, in vivo): 42.9%
- TEAE nausea, frequency ([1]; human, in vivo): 23.8%
- Tazemetostat‐related Grade 3/4 TEAE acute kidney injury ([1]; human, in vivo): 4.8%
- Tazemetostat‐related Grade 3/4 TEAE alanine aminotransferase increased ([1]; human, in vivo): 4.8%
- Tazemetostat‐related Grade 3/4 TEAE anemia ([1]; human, in vivo): 9.5%
- Tazemetostat‐related Grade 3/4 TEAE aspartate aminotransferase ([1]; human, in vivo): 4.8%
- Tazemetostat‐related Grade 3/4 TEAE diarrhea ([1]; human, in vivo): 4.8%
- Tazemetostat‐related Grade 3/4 TEAE syncope ([1]; human, in vivo): 4.8%
- Treatment-related TEAE Grade 3 or 4, related to the named study drug, patients ([1]; human, in vivo): 7 (33.3) n (%)
- Treatment-related TEAEs, related to the named study drug, patients ([1]; human, in vivo): 16 (76.2) n (%)
- Treatment-related TESAE, related to the named study drug, patients ([1]; human, in vivo): 1 (4.8) n (%)
- Any TEAE, patients ([1]; in vivo): all patients
- AUC0‐12h ratio, geoLSM (90% CI) ([2]; Part 2): 0.163 (0.128‐0.208) ^d
- Cmax ratio, geoLSM (90% CI) ([2]; Part 2): 0.164 (0.122‐0.219) ^d
- AUC0‐12h ratio, geoLSM (90% CI) ([2]; Part 2, listed as tazemetostat): 0.163
- Cmax ratio, geoLSM (90% CI) ([2]; Part 2, listed as tazemetostat): 0.164
- RacAUC (AUC0‐12h accumulation ratio), geoLSM (90% CI) ([2]; Part 2): 0.816 (0.638‐1.04) ^e
- RacCmax (Cmax accumulation ratio), geoLSM (90% CI) ([2]; Part 2): 0.828 (0.635‐1.08) ^e
- RacAUC (AUC0‐12h accumulation ratio), geoLSM (90% CI) ([2]; Part 2, listed as tazemetostat): 0.816
- RacCmax (Cmax accumulation ratio), geoLSM (90% CI) ([2]; Part 2, listed as tazemetostat): 0.828
- t1/2, GeoMean (CV%) [2, 3]: 7.55 (20.3) hour
- tmax, median (range) [2, 3]: 1.00 (0.63‐4.00) hour
- Tmax ([2]; oral, Part 2, tazemetostat 800 mg multiple dosing with rifampin 600 mg once daily, Day 24, plasma): 1.01 h
- AUC ([2]; plasma, oral, 800 mg, Part 2, tazemetostat 800 mg twice daily alone, multiple dosing, Day 15, plasma, read-out: AUC0‐12 h, GeoMean (CV%)): 3610 ng·h/mL
- AUC ([2]; plasma, oral, 800 mg, Part 2, tazemetostat 800 mg twice daily alone, multiple dosing, Day 15, plasma, read-out: AUC0‐12 h, mean (SD)): 4330 ng·h/mL
- AUC(0-t) ([2]; plasma, oral, 800 mg, Part 2, tazemetostat 800 mg twice daily alone, multiple dosing, Day 15, plasma, read-out: AUClast, GeoMean (CV%)): 4270 ng·h/mL
- AUC(0-t) ([2]; plasma, oral, 800 mg, Part 2, tazemetostat 800 mg twice daily alone, multiple dosing, Day 15, plasma, read-out: AUClast, mean (SD)): 5220 ng·h/mL
- Cmax ([2]; plasma, oral, 800 mg, Part 2, tazemetostat 800 mg twice daily alone, multiple dosing, Day 15, plasma, read-out: Cmax, GeoMean (CV%)): 1100 ng/mL
- Cmax ([2]; plasma, oral, 800 mg, Part 2, tazemetostat 800 mg twice daily alone, multiple dosing, Day 15, plasma, read-out: Cmax, mean (SD)): 1380 ng/mL
- half-life ([2]; plasma, oral, 800 mg, Part 2, tazemetostat 800 mg twice daily alone, multiple dosing, Day 15, plasma, read-out: t1/2, mean (SD) (converted)): 7.7 h
- AUC ([2]; plasma, oral, Part 2, tazemetostat 800 mg multiple dosing with rifampin 600 mg once daily, Day 24, plasma, read-out: AUC0‐12 h, GeoMean (CV%)): 588 ng·h/mL
- AUC ([2]; plasma, oral, Part 2, tazemetostat 800 mg multiple dosing with rifampin 600 mg once daily, Day 24, plasma, read-out: AUC0‐12 h, mean (SD)): 770 ng·h/mL
- AUC(0-t) ([2]; plasma, oral, Part 2, tazemetostat 800 mg multiple dosing with rifampin 600 mg once daily, Day 24, plasma, read-out: AUClast, GeoMean (CV%)): 676 ng·h/mL
- AUC(0-t) ([2]; plasma, oral, Part 2, tazemetostat 800 mg multiple dosing with rifampin 600 mg once daily, Day 24, plasma, read-out: AUClast, mean (SD)): 934 ng·h/mL
- Cmax ([2]; plasma, oral, Part 2, tazemetostat 800 mg multiple dosing with rifampin 600 mg once daily, Day 24, plasma, read-out: Cmax, GeoMean (CV%)): 181 ng/mL
- Cmax ([2]; plasma, oral, Part 2, tazemetostat 800 mg multiple dosing with rifampin 600 mg once daily, Day 24, plasma, read-out: Cmax, mean (SD)): 233 ng/mL
- half-life ([2]; plasma, oral, Part 2, tazemetostat 800 mg multiple dosing with rifampin 600 mg once daily, Day 24, plasma, read-out: t1/2, GeoMean (CV%) (converted)): 4.86 h
- half-life ([2]; plasma, oral, Part 2, tazemetostat 800 mg multiple dosing with rifampin 600 mg once daily, Day 24, plasma, read-out: t1/2, mean (SD) (converted)): 5.06 h
- AUC ([2]; plasma, po, 800 mg, Part 2, tazemetostat 800 mg oral single dose alone, Day 1, plasma, read-out: AUC0‐12 h, GeoMean (CV%)): 4420 ng·h/mL
- AUC ([2]; plasma, po, 800 mg, Part 2, tazemetostat 800 mg oral single dose alone, Day 1, plasma, read-out: AUC0‐12 h, mean (SD)): 5310 ng·h/mL
- AUC(0-t) ([2]; plasma, po, 800 mg, Part 2, tazemetostat 800 mg oral single dose alone, Day 1, plasma, read-out: AUClast, GeoMean (CV%)): 5200 ng·h/mL
- AUC(0-t) ([2]; plasma, po, 800 mg, Part 2, tazemetostat 800 mg oral single dose alone, Day 1, plasma, read-out: AUClast, mean (SD)): 6370 ng·h/mL
- Cmax ([2]; plasma, po, 800 mg, Part 2, tazemetostat 800 mg oral single dose alone, Day 1, plasma, read-out: Cmax, GeoMean (CV%)): 1330 ng/mL
- Cmax ([2]; plasma, po, 800 mg, Part 2, tazemetostat 800 mg oral single dose alone, Day 1, plasma, read-out: Cmax, mean (SD)): 1550 ng/mL
- half-life ([2]; plasma, po, 800 mg, Part 2, tazemetostat 800 mg oral single dose alone, Day 1, plasma, read-out: t1/2, GeoMean (CV%) (converted)): 6.22 h
- half-life ([2]; plasma, po, 800 mg, Part 2, tazemetostat 800 mg oral single dose alone, Day 1, plasma, read-out: t1/2, mean (SD) (converted)): 6.49 h
- Tmax ([2]; Part 2, tazemetostat 800 mg oral single dose alone, Day 1, plasma): 1.04 h
- decrease of tazemetostat steady‐state exposure (Cmax and AUC0‐12h) by rifampin ([2]; steady state, Day 24/Day 15): approximately 84%
